Experimental data from paper PMC11695783 (Frontiers in Pharmacology, 2024).
Converted amounts (≈) assume the structure as drawn. Where two headings read alike, the source gives them in different places.

Experiments:
[1] = broilers, cited from earlier work
M. pneumoniae = tested on: M. pneumoniae; set-up: method as in Eraikhuemen et al., 2021; conditions: against M. pneumoniae; ref Eraikhuemen et al., 2021; cited from earlier work
[2] = tested on: Mycoplasma pneumoniae strain M129 (ATCC 29342); assay: Time-kill curves; format: cell-based; set-up: M. pneumoniae count in time-kill curve: unit not given here
Description: (§1) Mycoplasma pneumoniae strain M129 (ATCC 29342) was obtained from American Type Culture Collection (Manassas, VA, United States) and cultured at 37°C in the presence of 5% CO2 in the modified SP-4 liquid medium (pH 7.4) containing 2.1% (w/v) CM1166 mycoplasma broth base medium (Oxoid, Hants, United Kingdom), 20% (v/v) fetal bovine serum (FBS, Bioexplorer, CO, United States), 0.4% yeast extract (Oxoid), 0.55% (w/v) CMRL 1066 w/L-glutamine culture media powder (MyBioSource, San Diego, CA, United States), 1% D-glucose (Macklin) and 0.004% phenol red (Macklin). […] The solid medium is based on the above formula with the addition of 1% agar, and the characteristic fried egg-like colonies were used for experiments following incubation for 7 d on plates.
The tubes were incubated at 37°C in 5% CO2 for 72 h, and 200 µL of the culture was removed every 12 h for 10-fold serial dilutions. The diluted cultures were plated on plates for further culture and counted after 7 d. The experiment was repeated three times.

[3] = tested on: Mycoplasma pneumoniae strain M129 (ATCC 29342); assay: Susceptibility assay (broth microdilution MIC, MBC); format: cell-based
Description: as §1
The broth microdilution MIC procedure was performed according to standardized methods for microdilution susceptibility testing of mycoplasma species ([Waites et al., 2012]). […] The concentration of organisms should be determined to approximately 10^6 CFU/mL prior to inoculation into 96-well plates. Due to the action of phenol red, the acidic metabolites of microbial growth can turn the medium yellow. […] The MBC assays were performed based on MICs following endpoint reading and the liquid in the high-concentration wells was removed for bacterial counting.

mice = conditions: oral acute toxicity; ref Fan et al., 2022; Hu et al.; Zhang et al., 2015; Zuo et al., 2020; cited from earlier work
[4] = 2020, cited from earlier work; for AUC0-∞: ref Zuo et al.; for bioavailability: mice, ref Wang Y. et al., 2024, Zuo et al.
[5] = set-up: method as in Wang Y. et al., 2024; Zuo et al., 2020; conditions: chickens, ref Wang Y. et al., 2024, Zuo et al., 2020, cited from earlier work

## C=C[C@]1(C)C[C@@H](OC(=O)CSC(C)(C)CNC(=O)[C@H](N)C(C)C)[C@]2(C)[C@H](C)CC[C@]3(CCC(=O)[C@H]32)[C@@H](C)[C@@H]1O [valnemulin]
[1]; IM, ref WANG et al., 2011
  bioavailability: 88.81%

## C=C[C@]1(C)C[C@@H](OC(=O)CS[C@@H]2CC[C@@H](N)C[C@H]2O)[C@]2(C)[C@H](C)CC[C@]3(CCC(=O)[C@H]32)[C@@H](C)[C@@H]1O [lefamulin]
M. pneumoniae
  MIC90: 0.006 µg/mL (≈ 0.0118 µM)

## CC[C@H]1OC(=O)[C@H](C)[C@@H](O[C@H]2C[C@@](C)(OC)[C@@H](O)[C@H](C)O2)[C@H](C)[C@@H](O[C@@H]2O[C@H](C)C[C@H](N(C)C)[C@H]2O)[C@](C)(O)C[C@@H](C)C(=O)[C@H](C)[C@@H](O)[C@]1(C)O [erythromycin]
[2]; 1×MIC, time 0
  M. pneumoniae count in time-kill curve: 7.138
[2]; 1×MIC, time 12
  M. pneumoniae count in time-kill curve: 6.145
[2]; 1×MIC, time 24
  M. pneumoniae count in time-kill curve: 6.32
[2]; 1×MIC, time 36
  M. pneumoniae count in time-kill curve: 5.109
[2]; 1×MIC, time 48
  M. pneumoniae count in time-kill curve: 4.8395
[2]; 1×MIC, time 60
  M. pneumoniae count in time-kill curve: 5.816
[2]; 1×MIC, time 72
  M. pneumoniae count in time-kill curve: 6.113
[2]; 2 × MIC, 72 h exposure
  decrease of bacterial load: 3.61 log10 CFU/mL
[2]; 2×MIC, time 0
  M. pneumoniae count in time-kill curve: 7.138
[2]; 2×MIC, time 12
  M. pneumoniae count in time-kill curve: 6.411
[2]; 2×MIC, time 24
  M. pneumoniae count in time-kill curve: 6.275
[2]; 2×MIC, time 36
  M. pneumoniae count in time-kill curve: 4.753
[2]; 2×MIC, time 48
  M. pneumoniae count in time-kill curve: 4.288
[2]; 2×MIC, time 60
  M. pneumoniae count in time-kill curve: 4.145
[2]; 2×MIC, time 72
  M. pneumoniae count in time-kill curve: 3.53
[2]; 4×MIC, time 0
  M. pneumoniae count in time-kill curve: 7.138
[2]; 4×MIC, time 12
  M. pneumoniae count in time-kill curve: 6.078
[2]; 4×MIC, time 24
  M. pneumoniae count in time-kill curve: 6.148
[2]; 4×MIC, time 36
  M. pneumoniae count in time-kill curve: 4.203
[2]; 4×MIC, time 48
  M. pneumoniae count in time-kill curve: 3.916
[2]; 4×MIC, time 60
  M. pneumoniae count in time-kill curve: 3.913
[2]; 4×MIC, time 72
  M. pneumoniae count in time-kill curve: 3.415
[2]; 8×MIC, time 0
  M. pneumoniae count in time-kill curve: 7.138
[2]; 8×MIC, time 12
  M. pneumoniae count in time-kill curve: 6.379
[2]; 8×MIC, time 24
  M. pneumoniae count in time-kill curve: 6.145
[2]; 8×MIC, time 36
  M. pneumoniae count in time-kill curve: 4.163
[2]; 8×MIC, time 48
  M. pneumoniae count in time-kill curve: 3.977
[2]; 8×MIC, time 60
  M. pneumoniae count in time-kill curve: 3.326
[2]; 8×MIC, time 72
  M. pneumoniae count in time-kill curve: 3.283
[2]; 16×MIC, time 0
  M. pneumoniae count in time-kill curve: 7.138
[2]; 16×MIC, time 12
  M. pneumoniae count in time-kill curve: 6.732
[2]; 16×MIC, time 24
  M. pneumoniae count in time-kill curve: 6.1338
[2]; 16×MIC, time 36
  M. pneumoniae count in time-kill curve: 3.93
[2]; 16×MIC, time 48
  M. pneumoniae count in time-kill curve: 3.332
[2]; 16×MIC, time 60
  M. pneumoniae count in time-kill curve: 3.123
[2]; 16×MIC, time 72
  M. pneumoniae count in time-kill curve: 3.438
[2]; 32×MIC, time 0
  M. pneumoniae count in time-kill curve: 7.138
[2]; 32×MIC, time 12
  M. pneumoniae count in time-kill curve: 6.133
[2]; 32×MIC, time 24
  M. pneumoniae count in time-kill curve: 5.307
[2]; 32×MIC, time 36
  M. pneumoniae count in time-kill curve: 3.588
[2]; 32×MIC, time 48
  M. pneumoniae count in time-kill curve: 3.619
[2]; 32×MIC, time 60
  M. pneumoniae count in time-kill curve: 3.2228
[2]; 32×MIC, time 72
  M. pneumoniae count in time-kill curve: 3.181
[2]; 64×MIC, time 0
  M. pneumoniae count in time-kill curve: 7.138
[2]; 64×MIC, time 12
  M. pneumoniae count in time-kill curve: 6.741
[2]; 64×MIC, time 24
  M. pneumoniae count in time-kill curve: 5.886
[2]; 64×MIC, time 36
  M. pneumoniae count in time-kill curve: 3.638
[2]; 64×MIC, time 48
  M. pneumoniae count in time-kill curve: 3.377
[2]; 64×MIC, time 60
  M. pneumoniae count in time-kill curve: 2.841
[2]; 64×MIC, time 72
  M. pneumoniae count in time-kill curve: 2.68
[2]; static time-kill, 72 h
  concentration at which bactericidal effect was achieved: 2 × MIC
[3]; M. pneumoniae strain M129, ≈96 h, read-out: MIC
  MIC: 0.016 µg/mL (≈ 0.0218 µM)
[3]; M. pneumoniae strain M129, read-out: MBC
  MBC: 0.032 µg/mL (≈ 0.0436 µM)

## C=C[C@]1(C)C[C@@H](OC(=O)CSc2nnc(N)s2)[C@]2(C)[C@H](C)CC[C@]3(CCC(=O)[C@H]32)[C@@H](C)[C@@H]1O [ATTM, 14-o-[(2-amino-1,3,4-thiadiazol-5-yl)thioacetyl] mutilin]
[1]; IM, ref Shang et al., 2018, Xianhui, 2010
  bioavailability: 75.29%
[1]; PO, ref Shang et al., 2018, Xianhui, 2010
  bioavailability: 72.03%
mice
  LD50: 2,304.4 mg/kg

## C=C[C@]1(C)C[C@@H](OC(=O)CSc2ccccc2N)[C@]2(C)[C@H](C)CC[C@]3(CCC(=O)[C@H]32)[C@@H](C)[C@@H]1O [amphenmulin, 22-(2-amino-phenylsulfanyl)-22-deoxypleuromutilin]
mice
  LD50: > 5,000 mg/kg
[4]; intraperitoneal, at the same dose
  AUC0-∞: 2520 ng·h/mL
[4]; intravenous, at the same dose as compound 16C
  AUC0-∞: 12230 ng·h/mL
[4]; IP
  bioavailability: 20.71%
[4]; PO
  bioavailability: 13.65%
[4]; oral, at the same dose
  AUC0-∞: 1670 ng·h/mL
[5]; IM
  bioavailability: 52.14%
[5]; PO
  bioavailability: 5.88%
